Molecules are shown by their SMILES.
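Also: CHO-K1 cells overexpressing SSTR4, reduction of forskolin-driven cAMP after 30 min compound exposure at room temperature, cAMP read by HTRF LANCE Ultra kit.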

The target in the assay is SSTR4 (Homo sapiens, UniProt P31391). Put plainly: cell-based.
Sequence of SSTR4 (P31391 whole entry): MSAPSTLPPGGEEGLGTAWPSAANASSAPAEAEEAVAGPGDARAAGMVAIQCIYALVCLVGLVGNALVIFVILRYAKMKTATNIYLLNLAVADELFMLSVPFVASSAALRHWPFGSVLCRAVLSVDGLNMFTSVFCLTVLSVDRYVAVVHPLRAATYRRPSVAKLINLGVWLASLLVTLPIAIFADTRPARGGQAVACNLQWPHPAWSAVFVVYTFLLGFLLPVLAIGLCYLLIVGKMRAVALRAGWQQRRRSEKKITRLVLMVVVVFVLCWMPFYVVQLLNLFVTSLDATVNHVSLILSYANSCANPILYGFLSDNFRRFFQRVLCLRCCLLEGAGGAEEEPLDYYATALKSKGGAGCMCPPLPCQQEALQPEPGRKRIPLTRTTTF
For orientation: EC50 means the midpoint of the concentration-response curve. `COc1cccc(Cc2nc(C#N)c(C)nc2N[C@@H]2CCN(C)C2)c1` [Example 98, (R)-6-(3-methoxybenzyl)-3-methyl-5-((1-methylpyrrolidin-3-yl)amino)pyrazine-2-carbonitrile] showed an EC50 of 77.6 nM.

In turn, `Cc1cnc(NCCN2CCCC2)c(C(C)c2ccc(F)cc2)n1` (stereo not shown) [Example 86, 3-(1-(4-fluorophenyl)ethyl)-5-methyl-N-(2-(pyrrolidin-1-yl)ethyl)pyrazin-2-amine] showed an EC50 of 79.4 nM. Take `C[C@@H](c1ccc(F)cc1)c1nccnc1NCCN1CCCC1` (single isomer, unassigned) [Example 122]: the EC50 was 575 nM.

In turn, `C[C@H]1C[C@H](Nc2nccnc2Cc2ccc(F)cc2)CCN1C` (single isomer, unassigned) [Example 113, N-(trans-1,2-dimethylpiperidin-4-yl)-3-(4-fluorobenzyl)pyrazin-2-amine] had an EC50 of 813 nM.

In the case of `c1ccc(Cc2nc3ccccc3nc2NCCN2CCCC2)cc1` [Example 1, 3-benzyl-N-(2-(pyrrolidin-1-yl)ethyl)quinoxalin-2-amine], the EC50 is 166 nM. In turn, `CCc1cnc(Cc2ccccc2)c(NCCN2CCC2)n1` [Example 89, N-(2-(azetidin-1-yl)ethyl)-3-benzyl-6-ethylpyrazin-2-amine] showed an EC50 of 15.8 nM.

`Cc1cccc(Cc2nc(C)c(C)nc2NCCN2CCCC2)c1` [Example 83, 5,6-dimethyl-3-(3-methylbenzyl)-N-(2-(pyrrolidin-1-yl)ethyl)pyrazin-2-amine] gave an EC50 of 7.76 nM. Turning to `Cc1nnc(Cc2ccc(F)cc2)c(NC2CCN(C)CC2)n1` [Example 137, 6-(4-fluorobenzyl)-3-methyl-N-(1-methylpiperidin-4-yl)-1,2,4-triazin-5-amine], the EC50 was 141 nM.

`Cc1nc(Cc2ccc(F)cc2)c(NCCN2CCCC2)nc1C` [Example 80, 3-(4-fluorobenzyl)-5,6-dimethyl-N-(2-(pyrrolidin-1-yl)ethyl)pyrazin-2-amine] showed an EC50 of 19.1 nM. `Cc1cccc(Cc2nc(C)c(C)nc2N[C@@H]2CCN(C)C2)c1` [Example 84, (R)-5,6-dimethyl-3-(3-methylbenzyl)-N-(1-methylpyrrolidin-3-yl)pyrazin-2-amine] had an EC50 of 45.7 nM. For `Cc1cccc(Cc2nc(C)c(C)nc2NC2CCN(C)CC2)c1` [Example 82, 5,6-dimethyl-3-(3-methylbenzyl)-N-(1-methylpiperidin-4-yl)pyrazin-2-amine] the value was 107 nM; for `Cc1nc(N[C@@H]2CCN(C)C[C@H]2C)c(Cc2ccc(F)cc2)nc1C(=O)N(C)C` (racemic) [Example 47, 5-((trans-1,3-dimethylpiperidin-4-yl)amino)-6-(4-fluorobenzyl)-N,N,3-trimethylpyrazine-2-carboxamide], 47.9 nM. As to `CNC(=O)c1cnc(N[C@@H]2CCN(C)C2)c([C@@H](C)c2ccc(F)cc2)n1` (single isomer, unassigned) [Example 34], the EC50 was 537 nM. Under `NC(=O)c1cnc(NCCN2CCCC2)c(Cc2ccc(F)cc2)c1` [Example 100, 5-(4-fluorobenzyl)-6-((2-(pyrrolidin-1-yl)ethyl)amino)nicotinamide] stands 95.5 nM; under `Cc1nnc(Cc2ccc(F)cc2)c(NCCN2CCC2)n1` [Example 135, N-(2-(azetidin-1-yl)ethyl)-6-(4-fluorobenzyl)-3-methyl-1,2,4-triazin-5-amine], 129 nM; under `CC(c1ccc(F)cc1)c1ncc(C(F)(F)F)nc1NCCN1CCCC1` (stereo not shown) [Example 94, 3-(1-(4-fluorophenyl)ethyl)-N-(2-(pyrrolidin-1-yl)ethyl)-6-(trifluoromethyl)pyrazin-2-amine], 151 nM. `CNC(=O)c1cnc(NCCN2CCCC2)c(Cc2ccc(F)cc2)c1` [Example 101] gave an EC50 of 166 nM. The molecule `CC1CN(C)CCC1Nc1nc(C(F)(F)F)cnc1Cc1ccc(F)cc1` (stereo not shown) [Example 92, N-(1,3-dimethylpiperidin-4-yl)-3-(4-fluorobenzyl)-6-(trifluoromethyl)pyrazin-2-amine] showed an EC50 of 115 nM. As for `CN(C)C(=O)c1cnc(NCCN2CCCC2)c(Cc2ccc(F)cc2)c1` [Example 99, 5-(4-fluorobenzyl)-N,N-dimethyl-6-((2-(pyrrolidin-1-yl)ethyl)amino)nicotinamide], it took 107 nM to reach a half-maximal effect (EC50). As to `Cc1cnc(-c2cnc(NCCN3CCCC3)c(C(C)c3ccc(F)cc3)n2)s1` (stereo not shown) [Example 127, 3-(1-(4-fluorophenyl)ethyl)-5-(5-methylthiazol-2-yl)-N-(2-(pyrrolidin-1-yl)ethyl)pyrazin-2-amine], the 50% effective concentration (EC50) is 224 nM. As to `Cc1cccc(Cc2cc3cccc(C)c3nc2NCCN2CCCC2)c1` [Example 7, 8-methyl-3-(3-methylbenzyl)-N-(2-(pyrrolidin-1-yl)ethyl)quinolin-2-amine], the EC50 was 661 nM. On to `CN1CCCCC1CNc1nccnc1Cc1ccc(F)cc1` (stereo not shown) [Example 112, 3-(4-fluorobenzyl)-N-((1-methylpiperidin-2-yl)methyl)pyrazin-2-amine], for which the EC50 was 550 nM.

The molecule `CC[C@@H]1CN(C)CC[C@H]1Nc1ncc(C(=O)NC)nc1Cc1ccc(F)cc1` (racemic) [Example 36, 5-((trans-3-ethyl-1-methylpiperidin-4-yl)amino)-6-(4-fluorobenzyl)-N-methylpyrazine-2-carboxamide] gave an EC50 of 224 nM. Take `CN1CCC1CNc1nccnc1Cc1ccc(F)cc1` (stereo not shown) [Example 110, 3-(4-fluorobenzyl)-N-((1-methylazetidin-2-yl)methyl)pyrazin-2-amine]: the EC50 was 2040 nM. Consider `CC(c1ccc(F)cc1)c1nccnc1NCCN1CCC(F)C1` (stereo not shown) [Example 117, 3-(1-(4-fluorophenyl)ethyl)-N-(2-(3-fluoropyrrolidin-1-yl)ethyl)pyrazin-2-amine], for which the EC50 was 224 nM. Molecule `Cc1cccc(Cc2nc(C#N)c(C)nc2N[C@@H]2CCN(C)C2)c1` [Example 97, (R)-3-methyl-6-(3-methylbenzyl)-5-((1-methylpyrrolidin-3-yl)amino)pyrazine-2-carbonitrile] showed an EC50 of 36.3 nM.

Take `Cc1nc(NCCN2CCCC2)c(C(C)c2ccc(F)cc2)nc1C(=O)NC1CCCC1` (stereo not shown) [Example 57, N-cyclopentyl-6-(1-(4-fluorophenyl)ethyl)-3-methyl-5-((2-(pyrrolidin-1-yl)ethyl)amino)pyrazine-2-carboxamide]: the EC50 was 40.7 nM. As to `Cc1nc(Cc2ccc(F)cc2)c(N[C@@H]2CCN(C)C2)nc1C` [Example 81, (R)-3-(4-fluorobenzyl)-5,6-dimethyl-N-(1-methylpyrrolidin-3-yl)pyrazin-2-amine], a half-maximal response (EC50) required 240 nM.

Molecule `Cc1nc(Cc2ccc(F)cc2)c(NC2CCN(C)CC2)nc1C` [Example 79, 3-(4-fluorobenzyl)-5,6-dimethyl-N-(1-methylpiperidin-4-yl)pyrazin-2-amine] had an EC50 of 229 nM. Molecule `Cc1cnc(-c2cnc(NCCN3CCCC3)c(C(C)c3ccc(F)cc3)n2)n1C` (stereo not shown) [Example 128, 5-(1,5-dimethyl-1H-imidazol-2-yl)-3-(1-(4-fluorophenyl)ethyl)-N-(2-(pyrrolidin-1-yl)ethyl)pyrazin-2-amine] had an EC50 of 81.3 nM.

For the molecule `CN1CCCC1CNc1nccnc1Cc1ccc(F)cc1` (stereo not shown) [Example 109, 3-(4-fluorobenzyl)-N-((1-methylpyrrolidin-2-yl)methyl)pyrazin-2-amine], the half-maximal effective concentration (EC50) was 501 nM. The molecule `C[C@@H](c1ccc(F)cc1)c1nc(C(N)=O)cnc1N[C@@H]1CCN(C)C1` (single isomer, unassigned) [Example 31] had an EC50 of 331 nM. As for `Cc1nc(NCCN2CCCC2)c(C(C)c2ccc(F)cc2)nc1C(=O)O` (stereo not shown) [Example 55], the EC50 was 13.8 nM.

As for `C[C@@H](c1ccc(F)cc1)c1nc(C(N)=O)cnc1NCCN1CCCC1` (single isomer, unassigned) [Example 20], a half-maximal effect (EC50) was put at 708 nM.

`Fc1ccc(Cc2ncc(C(F)(F)F)nc2NCCN2CCCC2)cc1` [Example 93, 3-(4-fluorobenzyl)-N-(2-(pyrrolidin-1-yl)ethyl)-6-(trifluoromethyl)pyrazin-2-amine] showed an EC50 of 77.6 nM. `Cc1cccc2nc(Cc3ccccc3)c(NCCN3CCC3)nc12` (single isomer, unassigned) [Example 2, N-(2-(azetidin-1-yl)ethyl)-3-benzyl-8-methylquinoxalin-2-amine] showed a concentration giving a half-maximal response (EC50) of 67.6 nM.

Consider `CC[C@@H]1CN(C)CC[C@H]1Nc1ncc(C(F)(F)F)nc1Cc1ccc(F)cc1` (racemic) [Example 95, N-(trans-3-ethyl-1-methylpiperidin-4-yl)-3-(4-fluorobenzyl)-5-(trifluoromethyl)pyrazin-2-amine], for which the half-maximal effective concentration (EC50) is 741 nM. With `Cc1cccc2nc(NCCN3CCC3)c(Cc3ccccc3)nc12` (single isomer, unassigned) [Example 3, N-(2-(azetidin-1-yl)ethyl)-3-benzyl-5-methylquinoxalin-2-amine], the EC50 was 457 nM. For the molecule `Fc1ccc(Cc2nccnc2N[C@@H]2CCNC[C@H]2F)cc1` (racemic) [Example 115, 3-(4-fluorobenzyl)-N-(trans-3-fluoropiperidin-4-yl)pyrazin-2-amine], it took 219 nM to reach a half-maximal effect (EC50).

Molecule `CCc1nnc(Cc2cccc(C)c2)c(NCCN2CCC2)n1` [Example 130, N-(2-(azetidin-1-yl)ethyl)-3-ethyl-6-(3-methylbenzyl)-1,2,4-triazin-5-amine] gave a half-maximal effective concentration (EC50) of 7.94 nM. In the case of `C[C@H]1C[C@@H](Nc2nccnc2Cc2ccc(F)cc2)CCN1C` (single isomer, unassigned) [Example 114, N-(cis-1,2-dimethylpiperidin-4-yl)-3-(4-fluorobenzyl)pyrazin-2-amine], a half-maximal effect (EC50) was put at 575 nM. With `CO[C@H]1C[C@@H](NC(=O)c2nc(C(C)c3ccc(F)cc3)c(NCCN3CCCC3)nc2C)C1` (stereo partly drawn) [Example 56, 6-(1-(4-fluorophenyl)ethyl)-N-(cis-3-methoxycyclobutyl)-3-methyl-5-((2-(pyrrolidin-1-yl)ethyl)amino)pyrazine-2-carboxamide], it took 7.59 nM to reach a half-maximal effect (EC50). As for `Cc1nnc([C@@H](C)c2ccc(F)cc2)c(N[C@H]2CCN(C)C2)n1` (single isomer, unassigned) [Example 147], the EC50 is 224 nM.

The values are drawn from US12428403B2, “N-(heterocyclyl and heterocyclylalkyl)-3-benzylpyridin-2-amine derivatives as SSTR4 agonists” (Takeda Pharmaceutical Company Limited, priority 2020, dated 2025).
